Experimental findings from ChEMBL document CHEMBL1201862, “PubChem BioAssay data set” (2004) are described below.

Activity calls are given as the source filed them.

The nature of assay [1]: A Cell Based Secondary Assay To Explore Cytotoxicity of Compounds that Sensitize Mycobacterium Tuberculosis to Beta-Lactam Antibiotics. Type of assay: functional.
In assay [2] the target is Cyclin-dependent kinase 5/CDK5 activator 1 (Homo sapiens, UniProt Q00535). Nature of the assay: CDK5/p35 kinase inhibitors, dose response, biochemical, cherry-picked samples, set 2 (AID 504545).
Sequence of Cyclin-dependent kinase 5/CDK5 activator 1 (Q00535 whole entry): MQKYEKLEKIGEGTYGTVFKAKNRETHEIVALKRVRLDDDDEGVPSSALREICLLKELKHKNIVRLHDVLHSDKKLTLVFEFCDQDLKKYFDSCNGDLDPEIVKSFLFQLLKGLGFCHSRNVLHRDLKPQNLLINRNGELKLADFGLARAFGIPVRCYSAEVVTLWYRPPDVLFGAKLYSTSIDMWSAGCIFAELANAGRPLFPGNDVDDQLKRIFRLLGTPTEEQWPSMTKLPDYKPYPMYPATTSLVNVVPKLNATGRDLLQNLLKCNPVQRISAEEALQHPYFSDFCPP
Sequence of Cyclin-dependent kinase 5/CDK5 activator 1 (Q15078 whole entry, further chain): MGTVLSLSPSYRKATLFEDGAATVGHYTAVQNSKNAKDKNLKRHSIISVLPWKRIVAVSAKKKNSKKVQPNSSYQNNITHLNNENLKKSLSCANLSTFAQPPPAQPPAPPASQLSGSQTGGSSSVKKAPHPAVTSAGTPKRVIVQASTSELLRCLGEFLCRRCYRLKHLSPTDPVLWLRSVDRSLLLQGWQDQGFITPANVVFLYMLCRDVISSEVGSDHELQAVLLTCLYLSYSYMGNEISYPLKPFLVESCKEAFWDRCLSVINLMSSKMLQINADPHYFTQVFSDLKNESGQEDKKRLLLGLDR
In assay [3] the target is T1, Tyrosine-protein phosphatase non-receptor type 7 (Homo sapiens, UniProt P35236).
T1 sequence (P35236 whole entry): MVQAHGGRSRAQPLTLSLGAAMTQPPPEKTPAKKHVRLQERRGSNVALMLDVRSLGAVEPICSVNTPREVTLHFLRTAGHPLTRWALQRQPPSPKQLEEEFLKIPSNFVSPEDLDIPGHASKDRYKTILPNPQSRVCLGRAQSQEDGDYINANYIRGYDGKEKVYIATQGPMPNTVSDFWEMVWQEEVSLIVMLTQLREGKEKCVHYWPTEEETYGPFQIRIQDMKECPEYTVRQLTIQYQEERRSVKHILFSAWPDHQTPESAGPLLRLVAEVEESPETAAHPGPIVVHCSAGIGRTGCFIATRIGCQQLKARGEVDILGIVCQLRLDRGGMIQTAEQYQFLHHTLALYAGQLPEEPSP
The assay is classed as functional.

For assay [4], the target named is Glyceraldehyde-3-phosphate dehydrogenase (Homo sapiens, UniProt P04406).
Sequence of Glyceraldehyde-3-phosphate dehydrogenase (P04406 whole entry): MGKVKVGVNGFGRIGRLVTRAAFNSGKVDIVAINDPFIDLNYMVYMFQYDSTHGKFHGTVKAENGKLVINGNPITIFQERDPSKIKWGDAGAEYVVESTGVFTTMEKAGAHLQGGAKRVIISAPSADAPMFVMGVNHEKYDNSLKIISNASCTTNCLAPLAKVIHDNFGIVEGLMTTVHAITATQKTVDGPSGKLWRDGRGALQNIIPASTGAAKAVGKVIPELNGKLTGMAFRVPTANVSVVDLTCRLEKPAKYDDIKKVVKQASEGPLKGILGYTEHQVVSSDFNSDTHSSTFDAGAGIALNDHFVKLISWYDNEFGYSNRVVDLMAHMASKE
The target of assay [5] is Heat shock cognate 71 kDa protein (Homo sapiens, UniProt P11142). In words: In Vitro Hsc70 Dose Response Fluorescence Polarization Assay. [Related pubchem assays: 1072 ].
Assay [6] addresses Heat shock 70 kDa protein 1A (Homo sapiens, UniProt P0DMV8). Nature of the assay: Hsp70 inhibitors, SAR follow-up, biochemical, fluorescence polarization (AID 1072). A general note: Fluorescence polarisation rises when a labelled molecule tumbles more slowly, as on binding a larger partner.
The target of assay [7] is T2, Dual specificity protein phosphatase 6 (Rattus norvegicus, UniProt Q64346).
T2 sequence (Q64346 whole entry): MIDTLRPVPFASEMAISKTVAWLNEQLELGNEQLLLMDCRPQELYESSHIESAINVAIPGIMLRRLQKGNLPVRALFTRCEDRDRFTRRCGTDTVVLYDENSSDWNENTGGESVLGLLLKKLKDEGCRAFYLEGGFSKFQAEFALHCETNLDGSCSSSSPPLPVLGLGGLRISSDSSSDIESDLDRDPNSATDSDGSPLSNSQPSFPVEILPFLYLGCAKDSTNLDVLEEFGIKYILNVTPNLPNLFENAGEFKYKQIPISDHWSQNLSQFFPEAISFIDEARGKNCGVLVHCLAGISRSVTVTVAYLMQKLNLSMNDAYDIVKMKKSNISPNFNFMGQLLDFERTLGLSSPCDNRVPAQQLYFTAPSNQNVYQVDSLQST

Assay [8] addresses T2, Dual specificity protein phosphatase 6. The assay is classed as functional.
For assay [9], the target named is Mothers against decapentaplegic homolog 3 (Homo sapiens, UniProt P84022). In words: Smad3 binding inhibitors, lysate ELISA, dose response, cell lysate, secondary confirmation, chemiluminescent ELISA, HEK293 lysate (AID 1058). The assay is classed as functional. (In general: In an ELISA, binding on a coated surface is turned into a signal by an enzyme label.)
Assay [10] addresses T3, Luciferin 4-monooxygenase (Photinus pyralis, UniProt P08659). Nature of the assay: Counter Screen for Luciferase-based Assay Positives. [Related pubchem assays: 620, 618, 411 ]. For orientation: The purpose of a counterscreen is to sort out artefacts and off-target activity.
Assay [11] concerns the target T3, Luciferin 4-monooxygenase. In words: firefly luciferase enzyme inhibitors, dose response, biochemical, luminescence (AID 1891).
Assay [12] can be described thus: Luminescence Cell-Based Dose Confirmation HTS to Identify Inhibitors of Platelet Dense Granule Release. [Related pubchem assays: 1663 (Primary HTS), 1678 (Summary of Project)]. Type of assay: functional.
For a further assay, the system named is HT-1080. In words: cytotoxicity in HT1080 fibrosarcoma cells, cell-based, fluorescence readout (AID 620). The following applies: Homo sapiens. Type of assay: functional.
The target of a further assay is T4, Protein skinhead-1 (Caenorhabditis elegans, UniProt P34707).
T4 sequence (P34707 whole entry): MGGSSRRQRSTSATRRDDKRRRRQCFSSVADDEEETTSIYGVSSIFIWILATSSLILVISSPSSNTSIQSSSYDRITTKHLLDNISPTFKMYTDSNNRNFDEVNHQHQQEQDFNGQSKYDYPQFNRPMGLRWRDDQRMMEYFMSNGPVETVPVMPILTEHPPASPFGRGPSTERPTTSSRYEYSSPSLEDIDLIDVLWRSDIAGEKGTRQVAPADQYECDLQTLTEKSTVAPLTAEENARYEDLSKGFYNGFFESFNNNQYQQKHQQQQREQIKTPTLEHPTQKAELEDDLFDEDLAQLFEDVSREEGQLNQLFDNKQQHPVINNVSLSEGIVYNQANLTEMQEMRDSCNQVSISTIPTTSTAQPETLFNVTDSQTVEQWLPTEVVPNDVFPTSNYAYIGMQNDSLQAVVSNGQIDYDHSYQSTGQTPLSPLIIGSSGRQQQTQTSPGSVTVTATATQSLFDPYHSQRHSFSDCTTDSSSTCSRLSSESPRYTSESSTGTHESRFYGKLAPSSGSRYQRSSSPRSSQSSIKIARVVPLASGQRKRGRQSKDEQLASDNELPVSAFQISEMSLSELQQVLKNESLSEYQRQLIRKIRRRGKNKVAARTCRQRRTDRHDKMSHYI
Type of assay: functional.

The test system of assay [13] is Streptococcus sp. 'group A'. In words: growth inhibition of control SK(-) GAS strain, dose response, counter-screen for streptokinase expression inhibitor project, luminescence, kanamycin, BacTiterGlo, confirmation (AID 1900). Type of assay: functional, organism-based.
Assay [14] relates to Streptococcus. Nature of the assay: Luminescence Microorganism-Based Dose Response Follow up to Identify Compounds Cytotoxic to Streptococcus. [Related pubchem assays: 1677 (Project Summary), 1915, 1914, 1902 (Retest at Dose), 1900 (Counter Screen), 1662 (Primary HTS)]. Type of assay: functional, organism-based.
The next assay has as its target T5, Streptokinase A (Streptococcus pyogenes serotype M1, UniProt P10520).
T5 sequence (P10520 whole entry): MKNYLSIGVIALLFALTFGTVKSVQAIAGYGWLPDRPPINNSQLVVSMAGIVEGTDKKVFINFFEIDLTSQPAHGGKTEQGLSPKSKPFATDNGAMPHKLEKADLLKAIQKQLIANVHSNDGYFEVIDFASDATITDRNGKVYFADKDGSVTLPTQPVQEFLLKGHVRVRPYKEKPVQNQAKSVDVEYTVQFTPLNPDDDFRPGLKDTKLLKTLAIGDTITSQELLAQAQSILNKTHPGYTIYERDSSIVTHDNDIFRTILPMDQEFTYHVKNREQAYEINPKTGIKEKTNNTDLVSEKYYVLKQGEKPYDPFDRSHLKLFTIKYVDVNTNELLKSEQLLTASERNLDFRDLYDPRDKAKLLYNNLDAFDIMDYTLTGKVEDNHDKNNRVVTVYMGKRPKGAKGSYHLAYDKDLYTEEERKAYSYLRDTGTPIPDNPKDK
In words: S. pyogenes streptokinase expression inhibitors, potency, dose response, plasminogen activation absorbance, OD405 (AID 1914).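 Further: secreted streptokinase activity via plasminogen activation per viability signal from cell pellet.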 The assay is classed as functional, Streptococcus pyogenes M1 GAS.

In assay [15] the test system is Streptococcus. In words: Group A Streptococcus viability loss, dose response, counter-screen for streptokinase expression inhibitor project, luminescence, BacTiterGlo (AID 1915).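 Further: potency for reduction of bacterial viability or growth.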 The assay is classed as functional, organism-based.
A short description of assay [16]: cytotoxicity in BJeHLT fibroblasts, dose response, counter-screen for Ras selective lethality project, BJeHLT cells, dry powder (AID 493052). The assay is classed as functional, cell-based. The following applies: Homo sapiens.
A short description of assay [17]: cytotoxicity in BJeH fibroblasts, dose response, counter-screen for Ras selective lethality project, BJeH cells, dry powder (AID 493054). The assay is classed as functional, cell-based.
Assay [18] deals with T6, Voltage-gated N-type calcium channel alpha-1B subunit/Amyloid beta A4 precursor protein-binding family A member 1 (Homo sapiens, UniProt Q00975+Q02410). Nature of the assay: disruptors of Mint-PDZ/N-type channel peptide interaction – biochemical, HTRF, set 2, SAR follow-up (AID 434980). Type of assay: functional.
T6 sequence (Q00975 whole entry): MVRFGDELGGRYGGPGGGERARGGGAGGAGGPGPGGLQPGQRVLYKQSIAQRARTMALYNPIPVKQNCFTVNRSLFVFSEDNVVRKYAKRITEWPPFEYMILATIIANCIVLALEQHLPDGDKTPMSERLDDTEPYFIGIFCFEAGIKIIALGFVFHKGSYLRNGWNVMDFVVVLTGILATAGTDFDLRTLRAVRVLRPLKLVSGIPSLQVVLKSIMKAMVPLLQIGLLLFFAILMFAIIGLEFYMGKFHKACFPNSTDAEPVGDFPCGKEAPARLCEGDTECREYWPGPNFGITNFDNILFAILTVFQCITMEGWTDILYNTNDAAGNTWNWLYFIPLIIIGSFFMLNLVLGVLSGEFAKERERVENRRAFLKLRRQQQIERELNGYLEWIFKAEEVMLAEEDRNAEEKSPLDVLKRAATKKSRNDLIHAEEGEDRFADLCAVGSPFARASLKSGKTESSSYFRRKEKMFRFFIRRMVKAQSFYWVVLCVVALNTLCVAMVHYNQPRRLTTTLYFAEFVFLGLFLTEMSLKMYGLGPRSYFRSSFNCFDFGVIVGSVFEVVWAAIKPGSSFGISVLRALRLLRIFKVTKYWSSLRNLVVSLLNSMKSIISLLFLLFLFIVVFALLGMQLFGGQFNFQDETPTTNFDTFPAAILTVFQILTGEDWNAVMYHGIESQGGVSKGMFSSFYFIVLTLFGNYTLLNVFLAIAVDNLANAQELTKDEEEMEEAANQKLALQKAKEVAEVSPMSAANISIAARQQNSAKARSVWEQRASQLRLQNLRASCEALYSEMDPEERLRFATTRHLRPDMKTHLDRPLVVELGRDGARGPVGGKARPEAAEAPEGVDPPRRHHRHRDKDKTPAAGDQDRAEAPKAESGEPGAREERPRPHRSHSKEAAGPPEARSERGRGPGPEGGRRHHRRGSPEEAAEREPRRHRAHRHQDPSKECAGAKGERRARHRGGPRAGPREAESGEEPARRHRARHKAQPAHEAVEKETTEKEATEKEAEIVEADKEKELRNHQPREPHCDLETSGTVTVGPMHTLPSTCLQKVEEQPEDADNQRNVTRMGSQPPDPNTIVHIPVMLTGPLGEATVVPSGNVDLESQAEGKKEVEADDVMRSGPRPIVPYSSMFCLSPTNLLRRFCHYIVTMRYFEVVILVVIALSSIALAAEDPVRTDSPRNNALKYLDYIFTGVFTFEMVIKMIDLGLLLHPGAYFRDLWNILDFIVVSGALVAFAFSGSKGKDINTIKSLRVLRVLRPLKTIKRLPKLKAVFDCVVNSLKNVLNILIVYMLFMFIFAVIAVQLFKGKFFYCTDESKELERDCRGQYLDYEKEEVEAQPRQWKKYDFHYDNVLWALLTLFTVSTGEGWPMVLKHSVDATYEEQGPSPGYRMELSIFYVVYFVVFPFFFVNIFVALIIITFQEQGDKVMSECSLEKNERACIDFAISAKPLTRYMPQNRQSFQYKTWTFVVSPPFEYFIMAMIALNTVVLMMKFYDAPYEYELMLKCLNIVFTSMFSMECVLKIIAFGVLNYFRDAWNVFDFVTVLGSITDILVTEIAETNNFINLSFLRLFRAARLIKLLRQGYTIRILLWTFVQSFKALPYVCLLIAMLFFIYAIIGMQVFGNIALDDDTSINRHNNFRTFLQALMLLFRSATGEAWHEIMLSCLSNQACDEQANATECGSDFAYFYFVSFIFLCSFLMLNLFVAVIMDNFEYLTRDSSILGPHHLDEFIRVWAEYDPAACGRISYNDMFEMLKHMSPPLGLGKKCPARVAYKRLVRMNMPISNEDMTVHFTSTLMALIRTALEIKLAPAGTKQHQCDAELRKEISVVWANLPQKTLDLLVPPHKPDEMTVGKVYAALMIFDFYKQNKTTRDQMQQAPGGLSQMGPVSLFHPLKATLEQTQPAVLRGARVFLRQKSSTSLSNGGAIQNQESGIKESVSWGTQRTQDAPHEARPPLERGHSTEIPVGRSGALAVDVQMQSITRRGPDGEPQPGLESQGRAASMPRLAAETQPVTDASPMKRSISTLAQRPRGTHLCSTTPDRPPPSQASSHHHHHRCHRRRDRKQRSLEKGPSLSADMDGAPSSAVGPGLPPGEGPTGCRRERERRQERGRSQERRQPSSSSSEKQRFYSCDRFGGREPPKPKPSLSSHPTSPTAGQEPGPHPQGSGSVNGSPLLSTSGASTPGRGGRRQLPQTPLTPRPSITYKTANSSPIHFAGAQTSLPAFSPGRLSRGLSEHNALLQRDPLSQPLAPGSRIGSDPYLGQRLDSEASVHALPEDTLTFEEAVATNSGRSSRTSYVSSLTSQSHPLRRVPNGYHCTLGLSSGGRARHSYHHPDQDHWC
T6 sequence (Q02410 whole entry): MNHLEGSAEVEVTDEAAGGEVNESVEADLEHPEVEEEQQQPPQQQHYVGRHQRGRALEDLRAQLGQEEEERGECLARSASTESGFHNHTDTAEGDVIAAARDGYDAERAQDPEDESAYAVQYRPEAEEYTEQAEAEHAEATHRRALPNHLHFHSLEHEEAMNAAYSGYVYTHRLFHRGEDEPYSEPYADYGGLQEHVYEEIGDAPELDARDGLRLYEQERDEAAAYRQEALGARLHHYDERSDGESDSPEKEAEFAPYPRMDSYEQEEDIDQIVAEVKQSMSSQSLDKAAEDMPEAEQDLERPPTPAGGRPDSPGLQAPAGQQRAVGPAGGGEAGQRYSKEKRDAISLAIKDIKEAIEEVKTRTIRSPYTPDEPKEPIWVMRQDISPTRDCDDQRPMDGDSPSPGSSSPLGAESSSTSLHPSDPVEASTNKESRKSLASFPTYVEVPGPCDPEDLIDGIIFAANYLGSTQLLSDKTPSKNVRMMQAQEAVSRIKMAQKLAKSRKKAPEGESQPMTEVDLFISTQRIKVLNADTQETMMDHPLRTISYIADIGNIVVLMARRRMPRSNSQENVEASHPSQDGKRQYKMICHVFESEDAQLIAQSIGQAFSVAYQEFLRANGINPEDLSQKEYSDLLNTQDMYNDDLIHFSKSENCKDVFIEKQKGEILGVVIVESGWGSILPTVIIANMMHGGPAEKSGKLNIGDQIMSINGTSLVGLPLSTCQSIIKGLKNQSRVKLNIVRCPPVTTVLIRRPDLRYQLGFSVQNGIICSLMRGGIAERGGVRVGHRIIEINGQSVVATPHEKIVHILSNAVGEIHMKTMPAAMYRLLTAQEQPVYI
Assay [19] deals with T6, Voltage-gated N-type calcium channel alpha-1B subunit/Amyloid beta A4 precursor protein-binding family A member 1. Nature of the assay: disruptors of Mint-PDZ/N-type channel peptide interaction – biochemical, HTRF, SAR follow-up (AID 2489). The assay is classed as functional.

T3 sequence (P08659 whole entry): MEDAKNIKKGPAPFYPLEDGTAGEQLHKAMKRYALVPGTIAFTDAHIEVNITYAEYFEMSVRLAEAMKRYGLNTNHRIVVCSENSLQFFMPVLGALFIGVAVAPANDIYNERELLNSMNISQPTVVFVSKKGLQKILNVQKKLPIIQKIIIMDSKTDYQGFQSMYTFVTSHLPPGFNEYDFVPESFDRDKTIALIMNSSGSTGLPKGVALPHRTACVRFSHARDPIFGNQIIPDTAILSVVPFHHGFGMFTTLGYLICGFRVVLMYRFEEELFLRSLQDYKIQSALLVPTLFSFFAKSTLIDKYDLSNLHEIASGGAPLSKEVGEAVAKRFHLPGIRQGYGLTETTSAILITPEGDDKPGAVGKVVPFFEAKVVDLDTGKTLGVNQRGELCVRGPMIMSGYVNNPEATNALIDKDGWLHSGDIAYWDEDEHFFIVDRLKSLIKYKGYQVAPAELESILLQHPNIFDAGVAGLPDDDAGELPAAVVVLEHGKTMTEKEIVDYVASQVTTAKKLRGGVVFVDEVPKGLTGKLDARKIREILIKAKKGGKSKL

In the case of `COc1ccc2c(c1)c(C(C)=O)c(C)n2-c1ccccc1`, the 50% cytotoxic concentration (CC50) (as a rule, the concentration giving 50% cytotoxicity) in [1] was > 40 µM (active).

Consider `Clc1cncc(Cl)c1N/N=C/c1ccncc1`, for which the AC50 (in general, the concentration giving half of the maximal activity seen) in assay [2] is 52.8 µM (active).

As to `COc1ccc2c(c1)C1C=CCC1C(C(=O)O)N2` (configuration not stated), the IC50 – broadly, the concentration that inhibits the measured activity by half – in [3] was 13.2 µM (active); in assay [4], > 100 µM (not active); in [5] it was > 100 µM (not active); in [6], 20.6 µM (active); in [7] it was 33.5 µM (active); in assay [8], 32 µM (active).

With `Oc1cc2c(cc1C(c1ccc(Cl)cc1)N1CCOCC1)OCO2` (configuration not stated), the IC50 in [9] is 10.3 µM (not active).

For the compound `Nc1ccc2nc(-c3ccccc3)sc2c1`, the EC50 (usually the concentration at which the effect is half-maximal) in assay [10] was 23.5 µM (active); in assay [11], 0.958 µM (active); in assay [12], 2.44 µM (active); in the assay with HT-1080, > 50 µM (not active). Also, the IC50 on Protein skinhead-1 is 55.9 µM (inactive).

Turning to `CC(C)c1ccc(NC(=O)c2cc(S(=O)(=O)NCC3COc4ccccc4O3)ccc2F)cc1` (configuration not stated), the EC50 in assay [13] was 12.2 µM (active); in the assay with Streptococcus [14], > 500 µM (not active); at Streptokinase A, 3.53 µM (active); in the assay on Streptococcus [15] it was 74.4 µM (active).

For `COc1ccc(N(C(=O)[C@@H](C)Cl)C(C(=O)NCCc2ccccc2)c2cccs2)cc1Cl` (some centres not stated), the AC50 in [16] and in [17] was > 454 µM (inactive) throughout.

On to `COc1cccc(CCNC(=O)c2cc(-c3ccco3)nc3ccccc23)c1`, for which the IC50 in assay [18] and in assay [19] was > 56.8 µM (inactive) in each case.
